According to patent publication US7964624B1, “Inhibitors of serine proteases” (priority 2005, dated 2011):
Where a SMILES comes first, the peptide text is derived from it. [ ]: non-standard residue; d: D form. Abu = CC[C@H](N)C(=O)O

Key:
Assay in all cases: Determination of Km and Vmax for peptide substrates
HCV NS3•4A = target: T1, HCV NS3•4A (Hepatitis C virus genotype 1a, UniProt P27958); type: biochemical, HCV sub-type strain 1a; conditions: enzyme NS3•4A; peptide substrate varied 3-200 μM; Michaelis-Menten fit
T1 construct: hexa-histidine (N); made in house; host or cells: Sf9 insect cells (baculovirus, pVL1392)
Description: (§1) This assay follows the cleavage of a peptide substrate by full-length hepatitis C viral protein NS3•4A. One of three peptide substrates based on the NS5A/NS5B cleavage site for genotype 1a HCV is used to measure enzyme activity. All substrate stock solutions (25 mM) were prepared in DMSO containing 0.2M DTT and stored at −20° C. A synthetic peptide cofactor (NS4A Peptide) was used to supplement NS4A. Peptide sequences are shown below. The hydrolysis reaction was performed in a 96-well microtiter plate format using 100 ηM to 125 ηM HCV NS3•4A in buffer containing 50 mM HEPES pH 7.8, 100 mM NaCl, 20% glycerol, 5 mM DTT and 25 μM NS4A Peptide. The final DMSO concentration was no greater than 2% v/v. Reactions using NS5AB or NS5AB-EDANS as substrate were quenched by the addition of 10% trifluoroacetic acid (TFA) to yield a final TFA concentration of 2.5%. Reactions using FITC-NS5AB-1 as substrate were quenched by the addition of 0.4M formic acid to yield a final concentration of 0.08M acid.
(§2) Enzymatic activity was assessed by separation of substrate and products by reverse phase HPLC. The instrument used was a Agilent 1100 with a G1322A degasser, either a G1312A binary pump or a G1311A quaternary pump, a G1313A autosampler, a G1316A column thermostated chamber, a G1321A fluorescence detector and a G1315A diode array detector. The column thermostat was at 40° C. […] The C-terminal product peak (NH2-SMSY-COOH) was quantitated using the absorbance data collected at 210 ηm. […] The C-terminal product peak (NH2-SMSYT-Asp(EDANS)-KKK-COOH) was quantitated using the fluorescence data collected at 350 ηm excitation/490 ηm emission. […] The N-terminal product peak (FITC-Ahx-EDVV-(alpha)Abu-C—COOH) was quantitated using the fluorescence data collected at 440 nm excitation/520 nm emission. Alternatively, the ratio of N-terminal product to unreacted FITC-NS5AB-1 substrate was determined using a Caliper LabChip 3000 with detection at 488 nm excitation/530 nm emission, using a chip buffer of 100 mM Tris pH 7.0, 10 mM EDTA, 0.01% (v/v) Brij-35, and 0.1% (v/v) CR-3. […]

HCV NS3 protease domain = target: T2, HCV NS3 protease domain (Hepatitis C virus genotype 1b, UniProt Q9WMX2); type: biochemical; conditions: enzyme NS3 protease domain; peptide substrate varied 3-200 μM; Michaelis-Menten fit
T2 construct: The first 181 amino acids of NS3 (residues 1027-1207 of the viral polyprotein); hexa-histidine (C); made in house; host or cells: E. coli BL21/DE3 pLysS
Description: This assay is a modification of that described by Landro, et al. (Landro J A, Raybuck S A, Luong Y C, O'Malley E T, Harbeson S L, Morgenstern K A, Rao G and Livingston D L. Biochemistry 1997, 36, 9340-9348), and uses a peptide substrate (NS5AB), based on the NS5A/NS5B cleavage site for genotype 1a HCV. The substrate stock solution (25 mM) was prepared in DMSO containing 0.2 M DTT and stored at −20° C. A synthetic peptide cofactor (KK4A) was used as a substitute for the central core region of NS4A. The reaction was performed in a 96-well microtiter plate format using 25 ηM to 50 ηM HCV NS3 protease domain in buffer containing 50 mM HEPES pH 7.8, 100 mM NaCl, 20% glycerol, 5 mM DTT and 25 μM KK4A. The final DMSO concentration was no greater than 2% v/v. […]
The SMSY product was separated from substrate and KK4A using a microbore separation method. […] The SMSY product peak was quantitated using the data collected at […].
To determine the kinetic parameters Km and Vmax, the HCV NS3 protease domain or HCV NS3•4A was reacted with peptide substrate under the assay conditions described above. […] The ratio of the product peak area (as determined by reverse phase HPLC) to the reaction time yielded a rate of enzyme catalyzed hydrolysis. […] The value of kcat was determined from Vmax using the nominal protease concentration and a fully cleaved substrate peptide as an instrument calibration standard.

[1] = system: CC[C@H](NC(=O)[C@@H](NC(=O)[C@@H](NC(=O)[C@H](CC(=O)O)NC(=O)[C@@H](N)CCC(=O)O)C(C)C)C(C)C)C(=O)N[C@@H](CS)C(=O)N[C@@H](CO)C(=O)N[C@@H](CCSC)C(=O)N[C@@H](CO)C(=O)N[C@@H](Cc1ccc(O)cc1)C(=O)N[C@H](C(=O)N[C@@H](CC(=O)NCCNc1cccc2c(S(=O)(=O)O)cccc12)C(=O)N[C@@H](CCCCN)C(=O)N[C@@H](CCCCN)C(=O)N[C@@H](CCCCN)C(=O)O)[C@@H](C)O; type: biochemical, HCV sub-type strain 1a; conditions: other: enzyme NS3•4A; peptide substrate varied 3-200 μM; Michaelis-Menten fit; 40.0 °C
Description: as §1, §2

## CC[C@H](NC(=O)[C@@H](NC(=O)[C@@H](NC(=O)[C@H](CC(=O)O)NC(=O)[C@@H](N)CCC(=O)O)C(C)C)C(C)C)C(=O)N[C@@H](CS)C(=O)N[C@@H](CO)C(=O)N[C@@H](CCSC)C(=O)N[C@@H](CO)C(=O)N[C@@H](Cc1ccc(O)cc1)C(=O)O [NS5AB, NH2-EDVV-(alpha)Abu-CSMSY-COOH] (H-EDVV[Abu]CSMSY-OH)
HCV NS3•4A
  Km: 30 µM

## CC[C@H](NC(=O)[C@@H](NC(=O)[C@@H](NC(=O)[C@H](CC(=O)O)NC(=O)[C@@H](N)CCC(=O)O)C(C)C)C(C)C)C(=O)N[C@@H](CS)C(=O)N[C@@H](CO)C(=O)N[C@@H](CCSC)C(=O)N[C@@H](CO)C(=O)N[C@@H](Cc1ccc(O)cc1)C(=O)O [DomainNS5AB] (H-EDVV[Abu]CSMSY-OH)
HCV NS3 protease domain
  Km: 25 µM

## HCV NS3•4A (Hepatitis C virus (isolate H77))
[1]
  Km: 56 µM
  kcat/Km: 1400 M⁻¹ s⁻¹
